Laboratory results from patent US9867790B2, “Compositions and methods using cuminaldehyde” (NESTEC S.A., priority 2013, dated 2018).
Read-outs that look alike come from different tables or passages of the source.

What was measured:
TRPV1 [1] = target: T1, TRPV1 (Homo sapiens, UniProt Q8NER1); conditions: cited from earlier work
T1 construct: expressed in transfected cells

mice [2] = assay: body weight gain in mice with chronic ingestion (FIG. 3); type: in vivo; conditions: mice chronically fed high fat diet containing 0.2 wt %, vs same diet without
TRPA1 [3] = conditions: read-out: EC50 of TRPA1 activation; cited from earlier work
mice [4] = assay: insulin sensitivity in mice with chronic ingestion (FIG. 4); type: in vivo; conditions: mice chronically fed high fat diet containing 0.2 wt %, vs same diet without
mice [5] = assay: gastric emptying after a single ingestion in mice (FIG. 6); type: in vivo; conditions: vs sham gavage
mice [6] = assay: short term food intake after a single ingestion in mice (FIG. 5); type: in vivo; conditions: vs sham gavage
TRPA1 [7] = target: T2, TRPA1 (Homo sapiens, UniProt O75762); assay: in vitro activation of TRPA1 in cells (FIG. 7); type: cell-based
T2 construct: expressed in transfected cells
T2 sequence (O75762 whole entry, species assumed): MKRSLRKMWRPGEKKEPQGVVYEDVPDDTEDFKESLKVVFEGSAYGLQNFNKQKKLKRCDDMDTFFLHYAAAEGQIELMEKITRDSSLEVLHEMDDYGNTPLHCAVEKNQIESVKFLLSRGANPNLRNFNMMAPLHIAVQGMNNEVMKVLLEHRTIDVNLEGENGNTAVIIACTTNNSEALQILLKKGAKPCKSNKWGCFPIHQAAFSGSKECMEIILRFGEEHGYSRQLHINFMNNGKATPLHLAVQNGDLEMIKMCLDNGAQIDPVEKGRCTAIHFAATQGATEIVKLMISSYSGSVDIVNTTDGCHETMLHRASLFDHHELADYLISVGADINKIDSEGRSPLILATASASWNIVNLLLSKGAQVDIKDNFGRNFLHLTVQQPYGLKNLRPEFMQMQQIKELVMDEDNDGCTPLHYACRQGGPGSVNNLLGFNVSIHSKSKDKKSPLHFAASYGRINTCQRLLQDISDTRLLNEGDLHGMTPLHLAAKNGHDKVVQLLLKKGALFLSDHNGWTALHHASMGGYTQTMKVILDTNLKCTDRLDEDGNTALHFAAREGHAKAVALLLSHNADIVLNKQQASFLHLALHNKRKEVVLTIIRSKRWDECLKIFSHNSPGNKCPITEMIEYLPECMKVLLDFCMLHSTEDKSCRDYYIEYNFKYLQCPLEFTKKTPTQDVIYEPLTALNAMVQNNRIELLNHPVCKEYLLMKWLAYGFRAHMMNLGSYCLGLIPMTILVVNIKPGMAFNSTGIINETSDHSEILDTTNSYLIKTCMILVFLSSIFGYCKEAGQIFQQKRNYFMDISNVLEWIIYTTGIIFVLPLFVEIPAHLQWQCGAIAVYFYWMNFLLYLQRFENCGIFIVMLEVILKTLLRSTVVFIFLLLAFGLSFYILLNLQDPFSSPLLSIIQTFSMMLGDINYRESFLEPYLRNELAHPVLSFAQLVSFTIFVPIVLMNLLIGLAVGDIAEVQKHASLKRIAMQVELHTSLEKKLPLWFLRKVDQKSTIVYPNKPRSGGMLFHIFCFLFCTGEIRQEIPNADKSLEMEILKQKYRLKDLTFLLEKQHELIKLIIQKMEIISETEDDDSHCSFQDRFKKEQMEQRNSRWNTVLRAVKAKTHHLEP

TRPM8 [8] = target: T3, TRPM8 (Homo sapiens, UniProt Q7Z2W7); assay: desensitization of TRPM8 by pretreatment before icilin (FIGS. 8A, 8B); type: cell-based; set-up: host or cells: cells, not specified; conditions: applied to cells fifteen minutes before icilin
T3 sequence (Q7Z2W7 whole entry): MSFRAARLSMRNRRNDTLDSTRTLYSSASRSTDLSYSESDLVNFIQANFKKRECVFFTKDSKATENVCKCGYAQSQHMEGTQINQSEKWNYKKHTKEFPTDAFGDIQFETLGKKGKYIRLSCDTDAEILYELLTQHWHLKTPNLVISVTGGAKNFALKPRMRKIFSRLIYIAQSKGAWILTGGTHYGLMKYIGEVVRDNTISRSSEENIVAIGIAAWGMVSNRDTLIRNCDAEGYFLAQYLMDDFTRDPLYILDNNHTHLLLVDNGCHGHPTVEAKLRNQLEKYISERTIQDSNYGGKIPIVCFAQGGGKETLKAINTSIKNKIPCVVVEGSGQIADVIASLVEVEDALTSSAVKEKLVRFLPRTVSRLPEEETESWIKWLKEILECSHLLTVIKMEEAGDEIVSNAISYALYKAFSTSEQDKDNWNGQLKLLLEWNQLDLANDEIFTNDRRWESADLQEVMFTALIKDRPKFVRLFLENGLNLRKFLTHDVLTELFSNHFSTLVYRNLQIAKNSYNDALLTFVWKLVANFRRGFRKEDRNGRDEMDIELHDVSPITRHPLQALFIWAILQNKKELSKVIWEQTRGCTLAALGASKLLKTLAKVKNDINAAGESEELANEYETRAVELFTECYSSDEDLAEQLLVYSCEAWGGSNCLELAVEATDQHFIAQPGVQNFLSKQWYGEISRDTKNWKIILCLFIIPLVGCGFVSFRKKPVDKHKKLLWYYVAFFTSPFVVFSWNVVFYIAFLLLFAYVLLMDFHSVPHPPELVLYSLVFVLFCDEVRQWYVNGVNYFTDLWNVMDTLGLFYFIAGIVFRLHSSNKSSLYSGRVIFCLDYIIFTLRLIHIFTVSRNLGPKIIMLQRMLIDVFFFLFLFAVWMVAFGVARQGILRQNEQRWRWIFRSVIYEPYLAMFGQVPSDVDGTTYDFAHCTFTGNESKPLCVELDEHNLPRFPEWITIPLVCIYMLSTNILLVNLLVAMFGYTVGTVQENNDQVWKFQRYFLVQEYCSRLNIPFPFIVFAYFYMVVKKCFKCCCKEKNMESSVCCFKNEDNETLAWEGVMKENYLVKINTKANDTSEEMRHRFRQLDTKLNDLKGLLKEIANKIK
Description: (§1) Specifically, cuminaldehyde was applied to cells fifteen minutes before cinnamaldehyde, icilin and capsaicin, which are specific agonists for TRPA1, TRPM8 and TRPV1 cation channels, respectively. After specific agonist application, the cation channel expression was measured. […] The left bars in each graph represent the controls lacking cuminaldehyde pretreatment, the right bars in each graph represent the samples including cuminaldehyde pretreatment.

"empty" cells = assay: in vitro activation of "empty" cells (FIG. 7); type: cell-based
TRPA1 [9] = target: T2, TRPA1; assay: desensitization of TRPA1 by pretreatment before cinnamaldehyde (FIGS. 8A, 8B); type: cell-based; conditions: applied to cells fifteen minutes before cinnamaldehyde
Description: as §1

TRPV1 [10] = target: T1, TRPV1; assay: in vitro activation of TRPV1 in cells (FIG. 7); type: cell-based; conditions: FIG. 7, triangles
TRPM8 [11] = target: T3, TRPM8; assay: in vitro activation of hTRPM8 in cells (FIG. 7); type: cell-based; set-up: expressed in transfected cells; conditions: FIG. 7, squares
TRPV1 [12] = target: T1, TRPV1; assay: desensitization of TRPV1 by pretreatment before capsaicin (FIGS. 8A, 8B); type: cell-based; conditions: applied to cells fifteen minutes before capsaicin
Description: as §1

T1 sequence (Q8NER1 whole entry, species assumed): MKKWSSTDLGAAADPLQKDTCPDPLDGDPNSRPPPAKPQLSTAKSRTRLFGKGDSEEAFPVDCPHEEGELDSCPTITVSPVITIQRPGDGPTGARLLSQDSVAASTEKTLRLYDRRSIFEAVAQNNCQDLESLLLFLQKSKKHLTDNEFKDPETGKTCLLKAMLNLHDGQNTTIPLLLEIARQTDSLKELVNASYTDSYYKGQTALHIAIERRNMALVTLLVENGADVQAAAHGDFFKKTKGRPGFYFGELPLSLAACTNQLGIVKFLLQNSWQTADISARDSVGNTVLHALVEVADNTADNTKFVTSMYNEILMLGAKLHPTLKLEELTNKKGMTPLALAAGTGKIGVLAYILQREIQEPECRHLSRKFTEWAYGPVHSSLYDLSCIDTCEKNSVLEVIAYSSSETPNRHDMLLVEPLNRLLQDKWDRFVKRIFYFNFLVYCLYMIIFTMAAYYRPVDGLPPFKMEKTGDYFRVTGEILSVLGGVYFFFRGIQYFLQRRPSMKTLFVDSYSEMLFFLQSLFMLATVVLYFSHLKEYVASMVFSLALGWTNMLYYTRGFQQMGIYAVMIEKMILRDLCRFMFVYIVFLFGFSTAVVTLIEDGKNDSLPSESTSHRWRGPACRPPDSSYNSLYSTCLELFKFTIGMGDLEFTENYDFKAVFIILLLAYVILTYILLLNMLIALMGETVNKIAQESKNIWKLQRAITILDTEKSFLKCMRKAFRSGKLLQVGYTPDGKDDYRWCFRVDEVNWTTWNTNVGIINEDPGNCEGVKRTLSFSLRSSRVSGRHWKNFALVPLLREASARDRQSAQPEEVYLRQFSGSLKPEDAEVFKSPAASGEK

O=CC=Cc1ccccc1 [cinnamaldehyde]
activation of TRPV1 (TRPV1 [1]): not
body weight gain (mice [2]): gained less weight
EC50 (TRPA1 [3]): ~60 µM
insulin sensitivity (mice [4]): improved insulin sensitivity
gastric emptying (mice [5]): delayed gastric emptying
short term food intake (mice [6]): reduction in short term food intake

CC(C)c1ccc(C=O)cc1 [cuminaldehyde]
activation of TRPA1 (TRPA1 [7]; FIG. 7, diamonds): activated TRPA1 (diamonds) in a dose-dependent fashion
efficacy of TRPA1 activation relative to cinnamaldehyde (TRPA1 [7]; relative to known TRPA1 agonist cinnamaldehyde): 140%
desensitization of TRPM8 (TRPM8 [8]): does not desensitize
activation of "empty" cells ("empty" cells): no activation was observed
desensitization of TRPA1 (TRPA1 [9]): does not desensitize
activation of TRPV1 (TRPV1 [10]): no activation was observed
activation of hTRPM8 (TRPM8 [11]): no activation was observed
desensitization of TRPV1 (TRPV1 [12]): does not desensitize
